Where two headings read alike, the source gives them in different places. Square brackets hold non-standard residues; d marks the D form. Peptide text beside a SMILES is read from it. * marks the point of attachment. X2 = CO[C@@H]1[C@H](OC(=O)*)CC[C@]2(CO2)[C@H]1[C@@]1(C)O[C@@H]1CC=C(C)C; X3 = CO[C@@H]1[C@H](OC(=O)*)CC[C@]2(CO2)[C@H]1[C@@]1(C)O[C@@H]1CCC(C)C; Sar = CNCC(=O)O
Columns and labels:
[1] = tested on: human umbilical vein endothelial cells (HUVEC); assay: human endothelial cell growth assay (Huvec assay); type: cell-based
Method: For the human endothelial cell growth assay, human umbilical vein endothelial cells (HUVEC) were maintained in Clonetics endothelial growth medium (EGM) in a 37° C. humidified incubator. Cells were detached with trypsin and pelleted by centrifugation at 300×g for 5 minutes at room temperature. HUVEC were added to 96-well plates at 5,000 cells/well. After incubating for 6 hours, the medium was replaced with 0.2 ml fresh EGM supplemented with 0.5 nM bFGF and the desired concentration of test angiogenesis inhibitor compound. Test angiogenesis inhibitor compounds were initially dissolved in ethanol at stock concentrations of either 10 mM or 0.1 mM, and subsequently diluted in EGM to obtain concentrations from […] to 10 μM. After 48 hours at 37° C., the medium was replaced with fresh bFGF-supplemented EGM and test angiogenesis inhibitor compound. Following incubation for an additional 48 hours at 37° C. MTT (3-[4,5-dimethylthiazol-2-yl]-2,5-diphenyl-tetrazolium bromide) was added to 1 mg/ml. After 2-4 hours at 37° C. the medium was replaced with 0.1 ml/well isopropanol. The plates were placed on a shaker for 15 minutes at room temperature and analyzed in a Labsystems Multiskan plate spectrophotometer at an optical density of 570 nm.

[2] = tested on: bovine aortic endothelial cell; assay: bovine aortic endothelial cell growth assay (Baec assay); type: cell-based
Method: The angiogenesis inhibitor compounds of the invention were tested for their ability to modulate human endothelial cell growth and for their ability to modulate the activity of MetAP2. The MetAP2 enzyme assay was performed essentially as described in Turk, B. et al. (1999) Chem. & Bio. 6: 823-833, the entire contents of which are incorporated herein by reference. The bovine aortic endothelial cell growth assay (Baec assay) was performed essentially as described in Turk, B. et al. (supra), the entire contents of which are incorporated herein by reference.

[3] = target: T1, MetAP2 (Homo sapiens, UniProt P50579); assay: MetAP2 enzyme assay; type: biochemical
T1 construct: made in house; host or cells: insect cells
Method: Finally, the ability of the angiogenesis inhibitor compounds of the invention to modulate the activity of MetAP2 may be tested as follows.. Recombinant human MetAP2 may be expressed and purified from insect cells as described in Li and Chang, (1996) Biochem. Biophys. Res. Commun. 227:152-159. Various amounts of angiogenesis inhibitor compound is then added to buffer H (10 mM Hepes, pH 7.35, 100 mM KCl, 10% glycerol, and […]) containing lnM purified recombinant human MetAP2 and incubated at 37° C. for 30 minutes. To start the enzymatic reaction a peptide containing a methionine residue, e.g., Met-Gly-Met, is added to the reaction mixture (to a concentration of 1 mM). Released methionine is subsequently quantified at different time points (e.g., at 0, 2, 3, and 5 minutes) using the method of Zou et al. (1995) Mol. Gen Genetics 246:247-253).
The angiogenesis inhibitor compounds of the invention were tested for their ability to modulate human endothelial cell growth and for their ability to modulate the activity of MetAP2. The MetAP2 enzyme assay was performed essentially as described in Turk, B. et al. (1999) Chem. & Bio. 6: 823-833, the entire contents of which are incorporated herein by reference. […]

[4] = Homo sapiens, HUVEC, read-out: IC50 (pM), Huvec Assay
[5] = Bos taurus, BAEC, read-out: IC50 (pM), Baec Assay

T1 sequence (P50579 whole entry): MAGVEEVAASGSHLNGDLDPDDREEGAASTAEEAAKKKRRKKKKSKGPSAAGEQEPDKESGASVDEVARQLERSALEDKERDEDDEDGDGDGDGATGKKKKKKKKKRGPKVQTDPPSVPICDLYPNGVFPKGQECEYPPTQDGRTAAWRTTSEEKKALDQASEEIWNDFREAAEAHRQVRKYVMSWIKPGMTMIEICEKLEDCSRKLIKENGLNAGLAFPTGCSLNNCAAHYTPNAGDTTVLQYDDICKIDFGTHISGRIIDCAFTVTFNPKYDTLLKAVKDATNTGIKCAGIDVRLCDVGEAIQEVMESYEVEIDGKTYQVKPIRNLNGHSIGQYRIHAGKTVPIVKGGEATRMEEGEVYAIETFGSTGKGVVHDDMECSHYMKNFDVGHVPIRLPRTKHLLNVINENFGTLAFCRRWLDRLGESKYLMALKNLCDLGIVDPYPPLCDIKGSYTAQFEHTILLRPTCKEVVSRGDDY

| SMILES | IC50 [2, 5] | IC50 ([1]; read-out: IC50, Huvec Assay) | further results |
| --- | --- | --- | --- |
| COC(=O)[C@H](NC(=O)O[C@@H]1CC[C@]2(CO2)[C@@H]([C@@]2(C)O[C@@H]2CC=C(C)C)[C@@H]1OC)c1ccccc1 [Example 4, {(3R, 4S, 5S, 6R)-5-Methoxy-4-[(2R, 3R )-2-methyl-3-(3-methyl-but-2-enyl)-oxiranyl]-1-oxa-spiro[2.5]oct-6-yloxycarbonylamino}-phenyl-acetic acid methyl ester] | 35 pM |  | IC50 [1, 4]: 36 pM |
| CO[C@@H]1[C@H](OC(=O)N[C@@H](C(N)=O)C(C)C)CC[C@]2(CO2)[C@H]1[C@@]1(C)O[C@@H]1CCC(C)C [Example 6, (1-Carbamoyl-2-methyl-propyl)-carbamic acid-(3R, 4S, 5S, 6R )-5-methoxy-4-[(2R, 3R)-2-methyl-3-(3-methyl-butyl)-oxiranyl]-1-oxa-spiro[2.5]oct-6-yl ester] | 220 pM |  |  |
| COC(=O)[C@H](NC(=O)O[C@@H]1CC[C@]2(CO2)[C@@H]([C@@]2(C)O[C@@H]2CC=C(C)C)[C@@H]1OC)C(C)(C)C [Example 8, 2-{(3R, 4S, 5S, 6R )-5-Methoxy-4-[(2R, 3R)-2-methyl-3-(3-methyl-but-2-enyl)-oxiranyl]-1-oxa-spiro[2.5]oct-6-yloxycarbonylamino}-3,3-dimethyl-butyric acid methyl ester] | 313 pM |  |  |
| COC(=O)[C@H](NC(=O)O[C@@H]1CC[C@]2(CO2)[C@@H]([C@@]2(C)O[C@@H]2CC=C(C)C)[C@@H]1OC)C1CCCCC1 [Example 9, Cyclohexyl-2-{(3R, 4S, 5S, 6R )-5-Methoxy-4-[(2R, 3R)-2-methyl-3-(3-methyl-but-2-enyl)-oxiranyl]-1-oxa-spiro[2.5]oct-6-yloxycarbonylamino}-acetic acid methyl ester] | 165 pM |  |  |
| CCC(C)C(NC(=O)O[C@@H]1CC[C@]2(CO2)[C@@H]([C@@]2(C)O[C@@H]2CC=C(C)C)[C@@H]1OC)C(=O)OC (some centres unmarked) [Example 10] | 179 pM |  |  |
| CO[C@@H]1[C@H](OC(=O)N[C@@H](C(=O)N[C@@H](CO)C(N)=O)C(C)C)CC[C@]2(CO2)[C@H]1[C@@]1(C)O[C@@H]1CC=C(C)C [Example 11] |  |  | IC50 ([2]; Bos taurus, BAEC, read-out: IC50, Baec Assay): > 100000 pM |
| CO[C@@H]1[C@H](OC(=O)NCC(=O)N[C@@H](CCCNC(=N)N)C(=O)NC[C@@H](O)N[C@@H](CC(=O)O)C(=O)N[C@@H](CO)C(=O)N2CCCC2C(N)=O)CC[C@]2(CO2)[C@H]1[C@@]1(C)O[C@@H]1CC=C(C)C (some centres unmarked) [Example 13] |  | > 1e+07 pM | IC50 [3]: 2.9 nM |
| CO[C@@H]1[C@H](OC(=O)NCC(=O)N[C@@H](CCCNC(=N)N)C(=O)NCC(=O)N[C@@H](CC(=O)O)C(N)=O)CC[C@]2(CO2)[C@H]1[C@@]1(C)O[C@@H]1CCC(C)C [Example 15] (X3-GRGD-NH2) |  | > 1e+07 pM |  |
| CO[C@@H]1[C@H](OC(=O)NCC(=O)N2CCC[C@H]2C(=O)N[C@@H](CC(C)C)C(=O)N(C)CC(=O)O)CC[C@]2(CO2)[C@H]1[C@@]1(C)O[C@@H]1CC=C(C)C [Example 18, N-Carbamoyl (ID#26) (3R, 4S, 5S, 6R) 5-methoxy-4-[(2R,3R)2-methyl-3-(3methyl-but-2-enyl)-oxiranyl]-1-oxa-spiro[2.5]oct-6-yl ester] (X2-GPL[Sar]-OH) |  | > 100000 pM |  |
| CO[C@@H]1[C@H](OC(=O)NCC(=O)N2CCC[C@H]2C(=O)N[C@@H](CC(C)C)C(=O)NCC(=O)O)CC[C@]2(CO2)[C@H]1[C@@]1(C)O[C@@H]1CC=C(C)C [Example 19, N-Carbamoyl (ID#27) (3R, 4S, 5S, 6R) 5-methoxy-4-[(2R,3R)2-methyl-3-(3-methyl-but-2-enyl)-oxiranyl]-1-oxa-spiro [2.5]oct-6-yl ester] (X2-GPLG-OH) |  | > 100000 pM | IC50 ([2]; read-out: IC50, Baec Assay): > 100000 pM |
| CO[C@@H]1[C@H](OC(=O)N[C@@H](C(=O)O)C(C)C)CC[C@]2(CO2)[C@H]1[C@@]1(C)O[C@@H]1CC=C(C)C [Example 24, 2-{(3R, 4S, 5S, 6R)-5-Methoxy-4-[(2R, 3R)-2-methyl-3-(3-methyl-but-2-enyl)-oxiranyl]-1-oxa-spiro[2.5]oct-6-yloxycarbonylamino}-3-methyl-butyric acid] |  |  | IC50 [1, 4]: 5440 pM |

Source: US20050059585A1, “Methionine aminopeptidase-2 inhibitors and methods of use thereof” (Praecis Pharmaceuticals Inc., priority 2000, published 2005)
